Measurements published in patent publication US8546608B2, “Proteasome inhibitors and methods of using the same” (Cephalon, Inc., priority 2003, dated 2013).

Experiments:
[1] = molecular target: T1, proteasome in Molt-4 cells (human leukemia) (Homo sapiens, UniProt P20618+P28074); type: cell-based; settings: assay of Example E, inhibition of MOLT4; read-out: MOLT4 (EC50)
T1 sequence (P28074 60-263): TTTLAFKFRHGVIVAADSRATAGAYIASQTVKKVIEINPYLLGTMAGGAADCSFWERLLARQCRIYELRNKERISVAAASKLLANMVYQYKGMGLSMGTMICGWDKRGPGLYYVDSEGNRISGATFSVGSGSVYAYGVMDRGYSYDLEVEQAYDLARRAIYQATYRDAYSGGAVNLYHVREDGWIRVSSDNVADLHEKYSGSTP
T1 sequence (P20618 29-241): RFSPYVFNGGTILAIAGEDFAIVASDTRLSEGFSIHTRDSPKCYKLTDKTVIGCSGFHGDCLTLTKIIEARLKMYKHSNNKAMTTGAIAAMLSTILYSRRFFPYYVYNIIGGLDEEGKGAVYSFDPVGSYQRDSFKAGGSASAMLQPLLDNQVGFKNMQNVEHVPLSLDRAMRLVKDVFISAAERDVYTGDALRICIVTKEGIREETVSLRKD
How it was run: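 Intact Molt-4 cells (6×10^6 cells/mL) in HEPES-buffered saline were preincubated with inhibitor 15 min at 37 °C, then given cell-permeable MeOSuc-FLF-AFC at 25 μM final.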

[2] = molecular target: T2, 20S Human Erythrocyte Proteasome (HEP) (Homo sapiens, UniProt P20618+P28074); experiment: Chymotrypsin-like activity of 20S Human Erythrocyte Proteasome (HEP), IC50 determination; type: biochemical; settings: assay of Example C, inhibition of HEP
T2 construct: 20S Human Erythrocyte Proteasome (HEP), purchased from Immatics Biotechnologies Inc; purchased Immatics Biotechnologies Inc., Tübingen, Germany; host or cells: human erythrocytes (natural source)
How it was run: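 20S proteasome at 0.2 μg/mL (about 0.6 nM catalytic sites) in 20 mM Tris with 0.04% SDS, preincubated 15 min at 37° C with inhibitor before Suc-LLVY-AMC (100 μM final). AMC fluorescence read in the linear range; triplicates, IC50 from concentration series.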

Row | EC50 [1] [nM] | IC50 [2] [nM] | Compound
1 | 2000 to 10000 | < 10 | CC(C)C[C@H](NC(=O)[C@H](CCCNC(=N)N[N+](=O)[O-])NC(=O)CSc1ccc2ccccc2c1)B(O)O [E.2.58, Boronic acid, [(1R)-1-[[(2S)-5-[[imino(nitroamino)methyl]amino]-2-[[2-(2-naphthylsulfanyl)acetyl]amino]-1-oxopentyl]amino]-3-methylbutyl]]
2 | < 200 | < 10 | CCCCc1ccc(C(=O)N[C@@H](CNC(=O)c2cccs2)C(=O)N[C@@H](CC(C)C)B2O[C@@H]3C[C@@H]4C[C@@H](C4(C)C)[C@]3(C)O2)cc1 [D.24.8, 4-butylbenzamide, N-[(1S)-1-[[[(1R)-1-[(3aS,4S,6S,7aR)-hexahydro-3a,5,5-trimethyl-4,6-methano-1,3,2-benzodioxaborol-2-yl]-3-methylbulyl]amino]carbonyl]-2-[(thien-2-ylcarbonyl)amino]ethyl]-]
3 | < 200 | < 10 | CCCCCCCCCC(=O)N[C@@H](CC(N)=O)C(=O)N[C@@H](CC(C)C)B1O[C@@H]2C[C@@H]3C[C@@H](C3(C)C)[C@]2(C)O1 [D.8.19, Decanamide, N-[(1S)-1-[[[(1R)-1-[(3aS,4S,6S,7aR)-hexahydro-3a,5,5-trimethyl-4,6-methano-1,3,2-benzodioxaborol-2-yl]-3-methylbutyl]amino]carbonyl]-2-carbamoylethyl]]
4 | < 200 | < 10 | CC(C)C[C@H](NC(=O)[C@H](CCCNC(=N)N[N+](=O)[O-])NC(=O)CCCCc1ccc(F)cc1)B1O[C@@H]2C[C@@H]3C[C@@H](C3(C)C)[C@]2(C)O1 [D.3.124, 5-(4-Fluorophenyl)-pentanamide,N-[(1S)-1-[[[(1R)-1-[(3aS,4S,6S,7aR)-hexahydro-3a,5,5-trimethyl-4,6-methano-1,3,2-benzodioxaborol-2-yl]-3-methylbutyl]amino]carbonyl]-4-[[imino(nitroamino)methyl]amino]butyl]]
5 | 200 to 2000 | < 10 | CC(C)C[C@H](NC(=O)[C@H](CCCNC(=N)N[N+](=O)[O-])NC(=O)CCCOc1ccccc1)B1O[C@@H]2C[C@@H]3C[C@@H](C3(C)C)[C@]2(C)O1 [D.3.104]
6 | < 200 | < 10 | CCCCCCCCCC(=O)N[C@@H](CNC(=O)CCCCC)C(=O)N[C@@H](CC(C)C)B(O)O [E.5.13, Boronic acid, [(1R)-1-[[(2S)-3-(hexanonylamino)-2-[(decanoylamino)]-1-oxopropyl]amino]-3-methylbutyl]]
7 | 200 to 2000 | < 10 | CC(C)C[C@H](NC(=O)[C@H](CCCNC(=N)N[N+](=O)[O-])NC(=O)c1cccc(NC(=O)OC(C)(C)C)c1)B1O[C@@H]2C[C@@H]3C[C@@H](C3(C)C)[C@]2(C)O1 [D.1.5, 3-[(1,1-dimethylethoxy)carbonylamino]benzamide, N-[(1S)-1-[[[(1R)-1-[(3aS,4S,6S,7aR)-hexahydro-3a,5,5-trimethyl-4,6-methano-1,3,2-benzodioxaborol-2-yl]-3-methylbutyl]amino]carbonyl]-4-[[imino(nitroamino)methyl]amino]butyl]-]
8 | 2000 to 10000 | < 10 | CC(C)C[C@H](NC(=O)[C@H](CCCNC(=N)N[N+](=O)[O-])NC(=O)COc1ccc(Br)cc1)B(O)O [E.2.77, Boronic acid, [(1R)-1-[[(2S)-5-[[imino(nitroamino)methyl]amino]-2-[[2-(4-bromophenoxy)acetyl]amino]-1-oxopentyl]amino]-3-methylbutyl]]
9 | 200 to 2000 | < 100 | CSCCC(=O)N[C@@H](CCCNC(=N)N[N+](=O)[O-])C(=O)N[C@@H](CC(C)C)B1O[C@@H]2C[C@@H]3C[C@@H](C3(C)C)[C@]2(C)O1 [D.3.138, 3-Methylsulfanylpropanamide,N-[(1S)-1-[[[(1R)-1-[(3aS,4S,6S,7aR)-hexahydro-3a,5,5-trimethyl-4,6-methano-1,3,2-benzodioxaborol-2-yl]-3-methylbutyl]amino]carbonyl]-4-[[imino(nitroamino)methyl]amino]butyl]]
10 | < 200 | < 10 | CC(C)C[C@H](NC(=O)[C@H](CCCNC(=N)N[N+](=O)[O-])NC(=O)/C=C/c1ccc2ccccc2c1)B1O[C@@H]2C[C@@H]3C[C@@H](C3(C)C)[C@]2(C)O1 [D.3.97, (E)-3-(Naphthalen-2-yl)acrylamide,N-[(1S)-1-[[[(1R)-1-[(3aS,4S,6S,7aR)-hexahydro-3a,5,5-trimethyl-4,6-methano-1,3,2-benzodioxaborol-2-yl]-3-methylbutyl]amino]carbonyl]-4-[[imino(nitroamino)methyl]amino]butyl]]
11 | 2000 to 10000 | < 10 | Cc1ccc(F)c(C(=O)N[C@@H](CCCNC(=N)N[N+](=O)[O-])C(=O)N[C@@H](CC(C)C)B(O)O)c1 [E.2.40, Boronic acid, [(1R)-1-[[(2S)-5-[[imino(nitroamino)methyl]amino]-2-[(2-fluoro-5-methylbenzoyl)amino]-1-oxopentyl]amino]-3-methylbutyl]]
12 | < 200 | < 10 | CCCCCCCCCC(=O)N[C@@H](CNC(=O)c1ccc(C)cc1)C(=O)N[C@@H](CC(C)C)B(O)O [E.1.16, Boronic acid, [(1R)-1-[[(2S)-3-[(4-methylbenzoyl)amino]-2-[(decanoylamino)]-1-oxopropyl]amino]-3-methylbutyl]]
13 | < 200 | < 10 | CCCCc1ccc(C(=O)N[C@@H](CNC(=O)NCCC)C(=O)N[C@@H](CC(C)C)B(O)O)cc1 [E.5.2, Boronic acid, [(1R)-1-[[(2S)-3-(propylureido)-2-[(4-butyl)-benzoylamino]-1-oxopropyl]amino]-3-methylbutyl]]
14 | < 200 | < 10 | CCCCCCCCCC(=O)N[C@@H](CNC(=O)Cc1ccc(OC)c(OC)c1)C(=O)N[C@@H](CC(C)C)B1O[C@@H]2C[C@@H]3C[C@@H](C3(C)C)[C@]2(C)O1 [D.12, 2-S-Decanoylamino-3-(3,4-dimethoxyphenylacetamido)propionamide, N-[(1S)-1-[[(1R)-1-[(3aS,4S,6S,7aR)-hexahydro-3a,5,5-trimethyl-4,6-methano-1,3,2-benzodioxaborol-2-yl]-3-methylbutyl]amino]carbonyl]]
15 | > 10000 | < 100 | CC(=O)N[C@@H](CCCNC(=N)N[N+](=O)[O-])C(=O)N[C@@H](CC(C)C)B(O)O [E.2.65, Boronic acid, [(1R)-1-[[(2S)-5-[[imino(nitroamino)methyl]amino]-2-[(acetyl)amino]-1-oxopentyl]amino]-3-methylbutyl]]
16 | 200 to 2000 | < 100 | CC(C)C[C@H](NC(=O)[C@H](CC(N)=O)NC(=O)c1cnccn1)B1O[C@@H]2C[C@@H]3C[C@@H](C3(C)C)[C@]2(C)O1 [D.8.18, 2-Pyrazinecarboxamide, N-[(1S)-1-[[[(1R)-1-[(3aS,4S,6S,7aR)-hexahydro-3a,5,5-trimethyl-4,6-methano-1,3,2-benzodioxaborol-2-yl]-3-methylbutyl]amino]carbonyl]-2-carbamoylethyl]]
17 | < 200 | < 10 | C/C(=C\c1ccccc1)C(=O)N[C@@H](CCCNC(=N)N[N+](=O)[O-])C(=O)N[C@@H](CC(C)C)B1O[C@@H]2C[C@@H]3C[C@@H](C3(C)C)[C@]2(C)O1 [D.3.26, (E)-2-Methyl-3-phenyl-acrylamide,N-[(1S)-1-[[[(1R)-1-[(3aS,4S,6S,7aR)-hexahydro-3a,5,5-trimethyl-4,6-methano-1,3,2-benzodioxaborol-2-yl]-3-methylbutyl]amino]carbonyl]-4-[[imino(nitroamino)methyl]amino]butyl]]
18 | > 10000 | < 10 | CC(C)CC(=O)N[C@@H](CCCNC(=N)N[N+](=O)[O-])C(=O)N[C@@H](CC(C)C)B(O)O [E.2.31, Boronic acid, [(1R)-1-[[(2S)-5-[[imino(nitroamino)methyl]amino]-2-[(3-methylbutanoyl)amino]-1-oxopentyl]amino]-3-methylbutyl]]
19 | 2000 to 10000 | < 100 | COCCOCC(=O)NCC(=O)N[C@@H](CCCNC(=N)N[N+](=O)[O-])C(=O)N[C@@H](CC(C)C)B1O[C@@H]2C[C@@H]3C[C@@H](C3(C)C)[C@]2(C)O1 [D.2.6]
20 | 200 to 2000 | < 10 | Cc1ccc(OCC(=O)N[C@@H](CCCNC(=N)N[N+](=O)[O-])C(=O)N[C@@H](CC(C)C)B(O)O)cc1C [E.2.22, Boronic acid, [(1R)-1-[[(2S)-5-[[imino(nitroamino)methyl]amino]-2-[[2-(3,4-dimethylphenoxy)acetyl]amino]-1-oxopentyl]amino]-3-methylbutyl]]
21 | < 200 | < 10 | CC(C)C[C@H](NC(=O)[C@@H](NC(=O)CCCCCCCCCN1C(=O)c2ccccc2C1=O)[C@@H](C)O)B(O)O [E.1.18, Boronic acid, [(1R)-1-[[(2S,3R)-3-hydroxy-2-[[10-(1,3-dioxo-1,3-dihydro-isoindol-2-yl)-decanoyl]amino]-1-oxobutyl]amino]-3-methylbutyl]]
